Results taken from paper PMC8480782, “Efficient Dimerization Disruption of Leishmania infantum Trypanothione Reductase by Triazole-phenyl-thiazoles” (Journal of Medicinal Chemistry, 2021).
Read-outs that look alike come from different tables or passages of the source. Non-standard residues stand in square brackets, D forms with d. Residues, ends and D or L forms follow the SMILES beside them. Nle = CCCC[C@H](N)C(=O)O

Key:
HepG2 cells = assay: Cellular toxicity, crystal violet assay; type: cell-based; details: Homo sapiens, HepG2; 24 h, crystal violet method; read-out: EC50 HepG2
Description: Liver hepatocellular carcinoma HepG2 cells were grown in Dulbecco’s modified Eagle’s medium (DMEM) (Sigma-Aldrich, St. Louis, MO) with 10% heat-inactivated FCS, antibiotics, and 10 mM HEPES.
Drug treatment of liver hepatocellular carcinoma HepG2 cells was performed at a concentration of 10^5 cells/mL at 37 °C and 5% CO2 for 24 h. EC50 was evaluated by the crystal violet assay. Briefly, cells were washed with phosphate-buffered saline (PBS) and stained with 200 μL of crystal violet solution (0.2% crystal violet, 2% ethanol) for 10 min at room temperature. Next, the plates were washed twice with tap water and allowed to dry. The stained cells were solubilized with 400 μL of 1% sodium dodecyl sulfate (SDS), and the color intensity was quantified at 570 nm using an EnSpire Multimode Plate Reader (PerkinElmer, Waltham, MA). All of the assays were conducted in triplicate in at least three independent experiments. Data were analyzed using a nonlinear regression model with GraFit 6 software (Erithacus, Horley, Surrey, U.K.).

LiTryR = target: T1, LiTryR (Leishmania infantum, UniProt A4HSF7); assay: biochemical; type: biochemical; details: LiTryR; 1 μM TS2; maximum assayed 75 μM; read-out: IC50^act, TryR oxidoreductase activity
T1 construct: HIS (N); made in house; host or cells: E. coli BL21 (DE3) Rossetta
T1 sequence (A4HSF7 1-491): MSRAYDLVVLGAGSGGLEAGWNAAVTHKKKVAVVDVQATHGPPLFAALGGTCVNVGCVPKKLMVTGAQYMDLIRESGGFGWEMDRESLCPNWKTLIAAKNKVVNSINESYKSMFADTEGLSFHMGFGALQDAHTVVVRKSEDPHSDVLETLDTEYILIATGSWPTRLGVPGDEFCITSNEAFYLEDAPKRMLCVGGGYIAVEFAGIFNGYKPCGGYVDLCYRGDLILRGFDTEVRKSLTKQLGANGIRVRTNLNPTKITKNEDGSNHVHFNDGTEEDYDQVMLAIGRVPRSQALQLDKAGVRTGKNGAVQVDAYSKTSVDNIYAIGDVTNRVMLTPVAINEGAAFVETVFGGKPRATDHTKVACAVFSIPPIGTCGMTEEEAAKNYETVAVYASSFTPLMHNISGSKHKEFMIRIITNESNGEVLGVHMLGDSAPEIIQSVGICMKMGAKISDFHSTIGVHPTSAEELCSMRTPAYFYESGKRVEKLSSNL
Description: A concentration of 1 μM TS2 was used for this initial screening. This low substrate concentration is sufficient for comparison of compound inhibitory activity in the oxidoreductase assay.
Recombinant L. infantum TryR (LiTryR) HIS-tagged and HIS-FLAG-tagged versions were used for all LiTryR oxidoreductase activity and dimer quantitation assays. These LiTryR versions were purified from Escherichia coli as previously described.[25] Briefly, pRSETA-HIS-LiTryR construct alone or in combination with the pET24a-FLAG-LiTryR construct was transformed into BL21 (DE3) Rossetta E. coli strain. An overnight E. coli culture grown at 37 °C in Luria–Bertani (LB) medium with the appropriate antibiotics and vigorous shaking was diluted (1:100) in the same medium and allowed to grow in the same conditions until the OD600 was 0.5. Then, LiTryR expression was induced by addition of 1 mM isopropyl-β-D-1-thiogalactopyranoside (IPTG) for 16 h at 26 °C. The cells were centrifuged for 5 min at 9000g and 4 °C and the wet pellet resuspended in lysis buffer (50 mM Tris, pH 7, 300 mM NaCl, 25 mM imidazole, protease inhibitor cocktail, and 1 mg/mL lysozyme). […] The supernatant was sonicated again as previously described for 10 min and loaded on a HisTrap column (GE Healthcare, Chicago, IL) for 16 h at 4 °C using a P-1 peristaltic pump (GE Healthcare, Chicago, IL). Once loaded, the HisTrap column was connected to an ÄKTA purifier UPC 10 (GE Healthcare, Chicago, IL) and washed using a 5–10% gradient between buffer A (50 mM Tris, pH 7 and 300 mM NaCl) and B (50 mM Tris, pH 7, 300 mM NaCl, and 500 mM imidazole). LiTryR was eluted using a 40% gradient between buffers A and B. Fractions containing recombinant LiTryR were pooled and loaded into a HiPrep 26/10 Desalting column (GE Healthcare, Chicago, IL) previously equilibrated with buffer A. Finally, LiTryR was concentrated to 2 mg/mL using an Amicon Ultra-15 50K (Merck Millipore, Burlington, MA) and an equal volume of glycerol was added before storing at −20 °C.
TryR oxidoreductase activity was determined spectrophotometrically using a modified version of the DTNB-coupled assay described by Hamilton et al.[52] Briefly, reactions were carried out at 26 °C in 250 μL of N-(2-hydroxyethyl)piperazine-N′-ethanesulfonic acid (HEPES) buffer (pH 7.5, 40 mM) containing ethylenediaminetetraacetic acid (EDTA) (1 mM), NADP^+ (30 μM), DTNB (25 μM), TS2 (1 μM), NADPH (150 μM), glycerol (0.02%), DMSO (1.75%), and recombinant TryR (7 nM). […] Reactions were started by addition of a mixture of NADPH and TS2.
TryR oxidoreductase activity was monitored at 26 °C by an increase in absorbance at 412 nm in an EnSpire Multimode Plate Reader (PerkinElmer, Waltham, MA). […] (TNB) concentration was obtained by multiplying the absorbance values by 100 (50 μM TNB generates 0.5 arbitrary units of absorbance at 412 nm). In this DTNB-coupled assay, one molecule of T(SH)2 reduces one molecule of DTNB, producing two TNB molecules. All of the assays were conducted in at least three independent experiments. Data were analyzed using a nonlinear regression model with GraFit 6 software (Erithacus, Horley, Surrey, U.K.).

[1] = test system: L. infantum promastigotes; assay: Leishmanicidal activity on promastigotes (PI exclusion, flow cytometry); type: cell-based, Leishmania infantum; details: for SIp (ratio of EC50 against human cells to EC50 against promastigotes): HepG2 / promastigotes; for EC50: Leishmania infantum
Description: (§1) L. infantum promastigotes (MCAN/ES/89/IPZ229/1/89) were grown in Roswell Park Memorial Institute (RPMI)-1640 medium (Sigma-Aldrich, St. Louis, MO) supplemented with 10% heat-inactivated fetal calf serum (FCS), antibiotics, and 25 mM HEPES (pH 7.2) at 26 °C. L. infantum axenic amastigotes (MCAN/ES/89/IPZ229/1/89) were grown in M199 medium (Invitrogen, Leiden, The Netherlands) supplemented with 10% heat-inactivated FCS, 1 g/L β-alanine, 100 mg/L L-asparagine, 200 mg/L sucrose, 50 mg/L sodium pyruvate, 320 mg/L malic acid, 40 mg/L fumaric acid, 70 mg/L succinic acid, 200 mg/L α-ketoglutaric acid, 300 mg/L citric acid, 1.1 g/L sodium bicarbonate, 5 g/L morpholineethanesulfonic acid (MES), 0.4 mg/L hemin, and 10 mg/L gentamicine, pH 5.4, at 37 °C.
(§2) Drug treatment of L. infantum promastigotes was performed during the logarithmic growth phase at a concentration of 2 × 10^6 parasites/mL at 26 °C for 24 h. […] EC50 was evaluated by flow cytometry by the propidium iodide (PI) exclusion method. After selection of the parasite population based on their forward scatter (FSC) and side scatter (SSC) values, live and dead parasite cells were identified by their permeability to PI. All of the assays were conducted in triplicate in at least three independent experiments. Data were analyzed using a nonlinear regression model with GraFit 6 software (Erithacus, Horley, Surrey, U.K.).

LiTryR dimer = target: T2, LiTryR dimer (Leishmania infantum, UniProt A4HSF7); assay: biochemical; details: 400 nM LiTryR, 16 h at 37 °C; read-out: IC50^dim, LiTryR monomer displacement (dimer quantitation ELISA)
T2 construct: made in house; host or cells: E. coli BL21 (DE3) Rossetta (co-transformed with both plasmids)
T2 sequence (A4HSF7 1-491): as above
Description: The stability of the LiTryR dimeric form in the presence of 1,2,3-triazole-phenyl-thiazole-based compounds was evaluated using the novel enzyme-linked immunosorbent assay (ELISA) developed in our laboratory.[25] […] Next, the different solutions were centrifuged at 18 000g for 15 min at room temperature. The supernatants (200 μL/well) were added to the α-FLAG-coated plates (Sigma-Aldrich, St. Louis, MO) and incubated for 30 min at 37 °C with agitation in a humid atmosphere. The plates were washed five times with TTBS buffer (2 mM Tris, pH 7.6, 138 mM NaCl, and 0.1% Tween-20) and incubated with diluted monoclonal α-HIS horseradish peroxidase (HRP)-conjugated antibody (200 μL, 1:50 000, Abcam, Cambridge, U.K.) in fatty acid- and essentially globulin-free bovine serum albumin (BSA) (5%) prepared in TTBS buffer for 1 h at room temperature. The plates were washed five times, and o-phenylenediamine dihydrochloride (OPD) substrate prepared according to the manufacturer’s instructions was added. The enzymatic reaction was stopped after 5 min with H2SO4 (100 μL, […]), and the absorbances were measured at 490 nm in an EnSpire Multimode Plate Reader (PerkinElmer, Waltham, MA). All of the assays were conducted in triplicate in at least three independent experiments. Data were analyzed using a nonlinear regression model with GraFit 6 software (Erithacus, Horley, Surrey, U.K.).

[2] = test system: L. infantum axenic amastigotes; assay: Leishmanicidal activity on axenic amastigotes (PI exclusion, flow cytometry); type: cell-based, Leishmania infantum; details: for SIa (ratio of EC50 against human cells to EC50 against amastigotes): HepG2 / axenic amastigotes; for EC50: Leishmania infantum, axenic amastigotes, 24 h at 37 °C, read-out: EC50 amastigotes
Description: as §1
Axenization was performed by diluting 0.5 mL of a 7-day stationary phase culture of L. infantum promastigotes (2–3 × 10^7 parasites/mL) in 4.5 mL of amastigotes medium and incubating the culture at 37 °C for 2 or 3 days. L. infantum axenic amastigotes apparition was followed by phase-contrast microscopy using an Eclipse Ti inverted microscope (Nikon, Tokyo, Japan).
as §2

[3] = 24 h at 26 °C, read-out: EC50 promastigotes
[4] = promastigotes or amastigotes (either form), read-out: EC50 against Leishmania promastigotes or amastigotes

SMILES	EC50 (HepG2 cells)	IC50 (LiTryR)	SIp (ratio of EC50 against human cells to EC50 against promastigotes) [1]	EC50 [1, 3]	IC50 (LiTryR dimer)	SIa (ratio of EC50 against human cells to EC50 against amastigotes) [2]	EC50 [2]	EC50 [1, 4]
NCCCc1cn(-c2ccc(-c3nc(CCc4ccccc4)cs3)c(OCCN3CCNC3=O)c2)nn1.O=C(O)C(F)(F)F [12h]	25.7 ± 2.2 µM	20.8 ± 2.3 µM	2.0	12.7 ± 0.3 µM	> 75 µM	< 1	31.6 ± 5.8 µM	–
CCCCc1cn(-c2ccc(-c3nc(CCc4ccc(-c5ccccc5)cc4)cs3)c(OCCN3CCNC3=O)c2)nn1 [12f]	–	> 75 µM	–	–	> 75 µM	–	–	–
CCCC[C@H](NC(=O)[C@H](CCCCN)NC(=O)[C@H](CCCC)NC(=O)[C@H](CO)NC(=O)[C@@H](NC(=O)CNC(=O)[C@@H](NC(=O)[C@H](CO)NC(=O)[C@H](CCC(N)=O)NC(=O)[C@@H](NC(=O)[C@@H](NC(=O)[C@H](CCCCN)NC(=O)[C@@H]1CCCN1C(=O)[C@H](CCCNC(=N)N)NC(=O)[C@H](CCCNC(=N)N)NC(=O)[C@H](CCCNC(=N)N)NC(=O)[C@H](CCCNC(=N)N)NC(=O)[C@H](CCCNC(=N)N)NC(=O)[C@H](CCCNC(=N)N)NC(=O)[C@H](CCCNC(=N)N)NC(=O)[C@H](CCCNC(=N)N)NC(=O)[C@H](CCCNC(=N)N)NC(C)=O)[C@@H](C)CC)[C@@H](C)CC)C(C)C)[C@@H](C)CC)C(N)=O [R9-peptide 1, reference compound] (Ac-RRRRRRRRRPKIIQSVGIS[Nle]K[Nle]-NH2; N-terminus and C-terminus assumed)	–	–	19.9	–	–	18.1	–	–
NCCCCc1cn(-c2ccc(-c3nc(CCc4ccc(Oc5ccccc5)cc4)c(-c4ccccc4)s3)c(OCCN3CCNC3=O)c2)nn1.O=C(O)C(F)(F)F [19e, 1-(2-(2-(4-(2-([4-Phenyloxyphenyl]-1-yl)ethyl)-5-phenyl-thiazol-2-yl)-5-(4-(4-ammoniobutyl)-1H-1,2,3-triazol-1-yl)phenoxy)ethyl)imidazolidin-2-one 2,2,2-Trifluoroacetate]	6.6 ± 0.6 µM	19.3 ± 3.7 µM	–	–	6.7 ± 1 µM	ND/<1	8.4 ± 0.1 µM	< 10 µM
CC(C)(C)Cc1csc(-c2ccc(-n3cc(CCCCN)nn3)cc2OCCN2CCNC2=O)n1.O=C(O)C(F)(F)F [12m]	44.9 ± 1.3 µM	24.1 ± 1.4 µM	1.0	42.6 ± 3.9 µM	> 75 µM	1.8	25.2 ± 0.5 µM	–
NCCCCc1cn(-c2ccc(-c3nc(Cc4ccccc4)cs3)c(OCCN3CCNC3=O)c2)nn1 [12o]	67.9 ± 1.5 µM	–	–	> 75 µM	–	–	> 75 µM	–
NCCCCc1cn(-c2ccc(-c3nc(CCc4ccc(-c5ccccc5)cc4)c(-c4ccccc4)s3)c(OCCN3CCNC3=O)c2)nn1.O=C(O)C(F)(F)F [19d, 1-(2-(2-(4-(2-([1,1′-Biphenyl]-4-yl)ethyl)-5-phenyl-thiazol-2-yl)-5-(4-(4-ammoniobutyl)-1H-1,2,3-triazol-1-yl)phenoxy)ethyl)imidazolidin-2-one 2,2,2-Trifluoroacetate]	12.1 ± 0.1 µM	19.8 ± 2.3 µM	–	–	5.7 ± 0.5 µM	ND/1.3	9.1 ± 0.2 µM	< 10 µM
N#Cc1ccc(-n2cc(CCCCN)nn2)cc1OCCN1CCNC1=O [compound 14]	–	> 75 µM	–	–	> 75 µM	–	–	–
O=C1NCCN1CCOc1cc(-n2cc(CCCCO)nn2)ccc1-c1nc(CCc2ccccc2)cs1 [12d]	–	> 75 µM	–	–	> 75 µM	–	–	–
CCCCc1cn(-c2ccc(-c3nc(CCc4ccccc4)cs3)c(OCCN3CCNC3=O)c2)nn1 [12e]	–	> 75 µM	–	–	> 75 µM	–	–	–
COc1cc(-n2cc(CCCCN)nn2)ccc1-c1nc(CCc2ccc(-c3ccccc3)cc2)cs1.O=C(O)C(F)(F)F [12k]	7.4 ± 0.6 µM	26.8 ± 5.7 µM	–	–	16.1 ± 0.7 µM	ND/1.9	4 ± 0.2 µM	–
O=C1NCCN1CCOc1cc(Br)ccc1-c1nc(CCc2ccccc2)cs1 [compound 13]	–	> 75 µM	–	–	> 75 µM	–	–	–
CC(C)Oc1csc(-c2ccc(-n3cc(CCCCN)nn3)cc2OCCN2CCNC2=O)n1 [12l]	–	54.5 ± 4.4 µM	–	–	> 75 µM	–	–	–
